These results are taken from publication PMC10600239, “Selective MCL-1 inhibitor ABBV-467 is efficacious in tumor models but is associated with cardiac troponin increases in patients” (Communications Medicine, 2023).

The test system of one assay is SKBR3 cells. Kind of assay: Cell viability of parental and BAK-, BAX-, BCL2L11-, PMAIP1-deficient SKBR3 cells (CellTiter-Glo). It is filed as cell-based. The following applies: SKBR3, 24 h. The protocol:
Fig. 2 Apoptosis induced by ABBV-467 is mechanism based and induces cell death in MCL-1-dependent cell lines after short target engagement periods. H929 cells were treated with ABBV-467 in the presence or absence of the pan-caspase inhibitor z-VAD-fmk (50 µM) and the impact on caspase-3/7 activation (a), mitochondrial membrane potential (ΔΨm; b), and apoptosis (c) determined. Alternatively, BAK-deficient SKBR3 cells were treated with ABBV-467 for 24 h and the impact on cell viability compared with the parental cell line, determined by CellTiter-Glo. Inset depicts a western blot of BAK and BAX expression in SKBR3 cell variants using GAPDH as a loading control. Each of the 3 proteins were probed on separate blots (d). Data in (a–d) are presented as the mean ± standard error of the mean. H929 and AMO-1 cells were treated with ABBV-467 at the indicated concentrations and the impact on caspase-3/7 activation and viability (DRAQ7-positive) cells determined over time by Incucyte®. Data are presented as the mean ± standard deviation (e). H929 or AMO-1 cells were cultured in media containing 10% human serum and treated with ABBV-467 for the indicated contact times. Cells were subsequently washed 3 times with drug-free media and incubated in drug-free media for the remainder of the 24-h treatment period at 37 °C before cell viability was determined by CellTiter-Glo. Mean EC50 and EC90 values were determined from the resulting dose-response curves from at least 3 independent experiments, each assessed in quadruplicate, and depict the mean ± standard error of the mean. Presented ABBV-467 dose-response curves in H929 and AMO-1 cells were compiled from at least 3 independent experiments (f).
Supplementary Fig. S5: SKBR3 cells deficient in BAX, BAK , PM AIP 1 (gene encoding the protein NOXA),
BCL 2L 11 (gene encoding the protein BIM) were treated with ABBV-467 for 24 hours and the impact on
cell death compared to the parental cell line determined by CellTiter- Glo™.

Another assay concerns the target human MCL-1 (Homo sapiens, UniProt Q07820). Kind of assay: Time-resolved FRET binding assay. The protocol:
Test compounds were serially diluted in DMSO starting at […] (20× starting concentration; 100% DMSO followed by a 1:10 dilution of the compound DMSO plate into assay buffer); 10 µL of the compound in 10% DMSO was then transferred into a 384-well plate (low-volume Corning #3673 assay plate). Glutathione S-transferase (GST)-tagged recombinant BCL-2, BCL-XL, MCL-1, BCL-W, or BCL2-A1 protein (1 nM each) were mixed with 100 nM Oregon Green™-labeled f-BAK peptide probe and 1 nM Tb-labeled anti-GST antibody were mixed. Then 10 µL of a 2× protein/probe/antibody mix was added to each well of increasing concentrations of test compound in assay buffer (20 mM potassium phosphate, pH 7.6, 50 mM NaCl, 1 mM ethylenediaminetetraacetic acid disodium salt dihydrate, 0.05% pluronic acid F-68, 1 mM DL-dithiothreitol) at room temperature (final concentrations listed in Supplementary Table S2). The samples were then mixed on a shaker for 1 min and incubated for an additional 1 h at room temperature. For each assay plate, a probe/antibody and protein/antibody/probe mixture were included as a negative and a positive control, respectively. Fluorescence was measured on the EnVision™ (Perkin Elmer) using a 340/35-nm excitation filter and 520/525- (F-Bak) and 495/510-nm (Tb-labeled anti-glutathione S-transferase [GST] antibody) emission filters. Dissociation constants were determined using Wang’s equation[35]. The time-resolved FRET assay can be performed in the presence of varying concentrations of human serum to determine apparent half-maximal inhibitory concentration after serum protein binding.

Assay [1] addresses off-target receptors, ion channels, and transporters (Homo sapiens, UniProt P35348). Kind of assay: Off-target profiling (Supplementary Data 1).
Assay [2] has as its target off-target receptors, ion channels, and transporters (Homo sapiens, UniProt O15530). Kind of assay: Off-target profiling (Supplementary Data 1). The following applies: TR-FRET Kinome; Invitrogen A-1167389.7 .015(Subs Conc).
Assay [3] addresses off-target receptors, ion channels, and transporters (Homo sapiens, UniProt P08581). Kind of assay: Off-target profiling (Supplementary Data 1). The following applies: TR-FRET Kinome; Invitrogen A-1196581.2 .003(Subs Conc).
Assay [4] addresses off-target receptors, ion channels, and transporters (Homo sapiens, UniProt P28223). Kind of assay: Off-target profiling (Supplementary Data 1).

Structures are written as SMILES. Where two headings read alike, the source gives them in different places.

Sequence of human MCL-1 (Q07820 whole entry): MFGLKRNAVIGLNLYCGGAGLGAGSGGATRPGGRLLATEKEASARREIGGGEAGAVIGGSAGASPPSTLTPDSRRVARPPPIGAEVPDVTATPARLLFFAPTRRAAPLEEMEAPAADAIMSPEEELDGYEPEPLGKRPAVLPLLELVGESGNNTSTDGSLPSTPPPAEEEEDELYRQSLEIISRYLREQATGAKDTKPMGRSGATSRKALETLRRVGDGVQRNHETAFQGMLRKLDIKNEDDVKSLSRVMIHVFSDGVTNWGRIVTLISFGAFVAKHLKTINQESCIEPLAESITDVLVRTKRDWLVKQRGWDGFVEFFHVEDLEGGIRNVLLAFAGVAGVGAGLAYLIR
Sequence of off-target receptors, ion channels, and transporters (Homo sapiens, UniProt P28223) (P28223 whole entry): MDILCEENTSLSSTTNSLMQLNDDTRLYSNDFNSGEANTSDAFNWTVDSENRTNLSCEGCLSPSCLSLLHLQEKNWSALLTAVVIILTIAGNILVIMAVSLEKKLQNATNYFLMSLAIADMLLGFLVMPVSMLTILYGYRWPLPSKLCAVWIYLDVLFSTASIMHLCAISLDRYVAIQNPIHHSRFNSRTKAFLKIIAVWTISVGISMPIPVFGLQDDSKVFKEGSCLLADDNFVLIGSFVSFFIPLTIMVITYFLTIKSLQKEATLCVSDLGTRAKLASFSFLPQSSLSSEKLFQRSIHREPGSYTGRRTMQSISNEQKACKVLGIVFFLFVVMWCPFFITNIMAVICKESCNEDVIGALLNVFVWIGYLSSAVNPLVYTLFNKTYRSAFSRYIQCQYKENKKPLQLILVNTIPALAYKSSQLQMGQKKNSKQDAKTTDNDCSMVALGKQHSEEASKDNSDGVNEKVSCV
Sequence of off-target receptors, ion channels, and transporters (Homo sapiens, UniProt P35348) (P35348 whole entry): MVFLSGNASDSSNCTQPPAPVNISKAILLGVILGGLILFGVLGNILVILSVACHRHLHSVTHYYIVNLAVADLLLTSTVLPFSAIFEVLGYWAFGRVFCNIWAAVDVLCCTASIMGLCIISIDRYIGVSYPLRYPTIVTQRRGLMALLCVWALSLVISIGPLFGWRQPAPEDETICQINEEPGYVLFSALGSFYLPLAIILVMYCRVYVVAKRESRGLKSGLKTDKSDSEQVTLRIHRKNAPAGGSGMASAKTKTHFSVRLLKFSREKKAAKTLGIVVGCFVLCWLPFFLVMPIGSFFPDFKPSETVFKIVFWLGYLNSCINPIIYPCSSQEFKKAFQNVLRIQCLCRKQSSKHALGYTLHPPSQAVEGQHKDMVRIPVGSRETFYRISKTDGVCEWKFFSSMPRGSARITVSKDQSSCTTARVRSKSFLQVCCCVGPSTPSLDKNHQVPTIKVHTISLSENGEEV
Sequence of off-target receptors, ion channels, and transporters (Homo sapiens, UniProt P08581) (P08581 25-1390): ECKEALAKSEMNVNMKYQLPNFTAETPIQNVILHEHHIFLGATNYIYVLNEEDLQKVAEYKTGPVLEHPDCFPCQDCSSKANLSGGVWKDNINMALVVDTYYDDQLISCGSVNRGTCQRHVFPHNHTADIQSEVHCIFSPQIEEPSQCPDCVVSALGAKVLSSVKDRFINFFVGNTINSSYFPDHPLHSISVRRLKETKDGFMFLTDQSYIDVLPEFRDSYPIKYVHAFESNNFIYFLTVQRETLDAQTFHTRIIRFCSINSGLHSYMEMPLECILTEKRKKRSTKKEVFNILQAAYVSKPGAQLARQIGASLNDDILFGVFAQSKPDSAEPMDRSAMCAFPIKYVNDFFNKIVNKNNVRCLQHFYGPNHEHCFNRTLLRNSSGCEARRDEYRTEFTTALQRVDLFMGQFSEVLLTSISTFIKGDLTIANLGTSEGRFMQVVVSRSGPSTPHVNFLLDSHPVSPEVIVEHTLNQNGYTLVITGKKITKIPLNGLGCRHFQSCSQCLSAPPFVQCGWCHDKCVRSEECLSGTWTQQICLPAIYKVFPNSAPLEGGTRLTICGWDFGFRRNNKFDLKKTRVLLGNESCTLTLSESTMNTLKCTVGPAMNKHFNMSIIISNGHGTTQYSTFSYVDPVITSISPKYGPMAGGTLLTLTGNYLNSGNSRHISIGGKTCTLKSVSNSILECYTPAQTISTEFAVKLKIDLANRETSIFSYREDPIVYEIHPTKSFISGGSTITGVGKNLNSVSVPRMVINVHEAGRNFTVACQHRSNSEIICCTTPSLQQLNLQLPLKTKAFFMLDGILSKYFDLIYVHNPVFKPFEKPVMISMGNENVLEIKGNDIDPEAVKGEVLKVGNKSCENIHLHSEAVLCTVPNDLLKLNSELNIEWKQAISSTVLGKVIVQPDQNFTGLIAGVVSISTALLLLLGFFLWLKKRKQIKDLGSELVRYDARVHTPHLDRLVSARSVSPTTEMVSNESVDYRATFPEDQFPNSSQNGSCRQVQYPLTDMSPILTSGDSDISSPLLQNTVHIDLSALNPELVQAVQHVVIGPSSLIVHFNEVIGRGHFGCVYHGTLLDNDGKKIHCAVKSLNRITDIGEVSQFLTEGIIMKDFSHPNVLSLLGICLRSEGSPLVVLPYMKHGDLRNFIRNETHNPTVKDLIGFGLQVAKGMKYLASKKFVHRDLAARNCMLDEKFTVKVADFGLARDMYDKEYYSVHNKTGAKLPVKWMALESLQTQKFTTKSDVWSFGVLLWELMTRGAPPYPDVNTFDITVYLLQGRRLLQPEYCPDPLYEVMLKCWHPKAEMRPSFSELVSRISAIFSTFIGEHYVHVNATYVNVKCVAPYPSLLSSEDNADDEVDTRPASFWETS
Sequence of off-target receptors, ion channels, and transporters (Homo sapiens, UniProt O15530) (O15530 whole entry): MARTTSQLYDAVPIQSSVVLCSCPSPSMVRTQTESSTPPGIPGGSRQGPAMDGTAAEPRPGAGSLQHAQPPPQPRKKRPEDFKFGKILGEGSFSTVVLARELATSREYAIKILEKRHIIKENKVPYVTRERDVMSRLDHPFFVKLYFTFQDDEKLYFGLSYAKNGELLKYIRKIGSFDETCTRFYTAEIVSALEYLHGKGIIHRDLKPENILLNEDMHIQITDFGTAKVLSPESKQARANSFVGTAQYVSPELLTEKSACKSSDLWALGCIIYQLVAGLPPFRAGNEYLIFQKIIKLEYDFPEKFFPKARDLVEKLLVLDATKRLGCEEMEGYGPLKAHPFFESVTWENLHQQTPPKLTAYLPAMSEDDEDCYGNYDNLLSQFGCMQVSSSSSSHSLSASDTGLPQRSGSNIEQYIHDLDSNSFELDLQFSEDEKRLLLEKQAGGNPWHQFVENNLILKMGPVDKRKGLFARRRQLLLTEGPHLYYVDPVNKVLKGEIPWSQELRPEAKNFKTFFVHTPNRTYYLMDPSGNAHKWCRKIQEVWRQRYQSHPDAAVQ

As for `Cc1c(Cl)c2c(Cl)c(C)c1-c1c(-c3ccc(F)cc3)sc3ncnc(c13)O[C@@H](C(=O)O)Cc1cc(ccc1OCc1ccnc(-c3ccc(OC[C@H]4COCCO4)cc3)n1)OC[C@@H](CN1CCN(C)CC1)O2` [ABBV-467], the “effect of BAK deletion on activity” value with SKBR3 cells was “completely inhibited”. Moreover, the “effect of deletion of BAX, BIM or NOXA genes on activity” value in the assay with SKBR3 cells was “did not impact activity”. Further, the Ki at human MCL-1 (TR-FRET, arithmetic mean, read-out: Arithmetic Mean Ki, MCL1) is less than 0.01 nM; on human MCL-1 (TR-FRET, individual determinations, read-out: Individual Ki, MCL1), less than 0.01 nM; on human MCL-1 (read-out: TR-FRET, Ki, nM MCL-1), less than 0.01 nM. Also, the EC50 in assay [1] (read-out: Alpha1A CHO Human - EC50, Bioprofiling 6pt Ag) is more than 10 µM. Besides, the half-maximal inhibitory concentration (IC50) in assay [1] (read-out: Alpha1A CHO Human - IC50, Bioprofiling 6pt Antag, A-61603) is more than 10 µM. Moreover, the PDK1 - IC50 in assay [2] was more than 10 µM. Also, the cMET - IC50 in assay [3] was more than 10 µM. In assay [4] (Bioprofiling 6pt Ag), this compound had a 5-HT2A CHO Human - EC50 of more than 10 µM. This compound also displayed a 5-HT2A CHO Human - IC50 in assay [4] (Bioprofiling 6pt Antag, Serotonin (5-HT)) of more than 10 µM.
